Biological target: T1, RIP1 (Homo sapiens, UniProt Q13546)
T1 sequence (Q13546 1-671): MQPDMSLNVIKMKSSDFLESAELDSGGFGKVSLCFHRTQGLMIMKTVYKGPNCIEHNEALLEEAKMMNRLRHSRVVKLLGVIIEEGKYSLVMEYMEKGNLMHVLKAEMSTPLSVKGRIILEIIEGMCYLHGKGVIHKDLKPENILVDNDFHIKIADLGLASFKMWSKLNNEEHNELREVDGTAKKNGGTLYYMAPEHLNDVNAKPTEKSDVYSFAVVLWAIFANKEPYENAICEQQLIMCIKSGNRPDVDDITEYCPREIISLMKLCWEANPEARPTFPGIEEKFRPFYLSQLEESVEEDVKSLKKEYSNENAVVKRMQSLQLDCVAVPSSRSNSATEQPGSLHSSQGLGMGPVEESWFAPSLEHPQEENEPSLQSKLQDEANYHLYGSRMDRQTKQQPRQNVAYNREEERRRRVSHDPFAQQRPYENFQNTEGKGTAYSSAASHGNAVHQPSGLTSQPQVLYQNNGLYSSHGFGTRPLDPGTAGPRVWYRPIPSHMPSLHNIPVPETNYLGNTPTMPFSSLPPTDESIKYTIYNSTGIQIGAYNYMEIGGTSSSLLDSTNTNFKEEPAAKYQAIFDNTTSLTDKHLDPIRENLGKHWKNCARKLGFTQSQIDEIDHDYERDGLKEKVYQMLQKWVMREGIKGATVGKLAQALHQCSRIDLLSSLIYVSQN
Assay: Cellular RIP1 inhibitory activity: HT-29 necroptosis (TNFα/SMAC mimetic/zVAD-FMK) CellTiter-Glo viability assay
Assay type: cell-based
Conditions: HT-29 cells, TNF-α 10 ng/ml + SMAC mimetic 6 μM + zVAD-FMK 10 μM, 20 hours, geometric mean, read-out: EC50 Values of in vitro Cellular RIP1 Inhibitory Activity
Protocol: Compounds 1-99 (denoted as Cmpd Nos. 1 through 99 in Table 2 below) of the disclosure were tested for binding and cellular RIP1 inhibitory activity following the experimental procedures described below. Cell Seeding • 1. HT-29 cells were checked every day to make sure that they were healthy and growing as expected. They were subjected to sub-culturing when they were approximately 80% confluent. • 2. The culture medium, McCOY's 5 A medium (Gibco, Cat No. 16600-082) with 10% fetal bovine serum or FBS (Gibco, Cat No. 10099-141C), was pre-warmed in a 37° C. water bath for at least 30 min. • 3. When the cells had reached a desired level of confluency of 80% in a T75 flask, the medium was aspirated, and the cells were washed with warm phosphate buffered saline or PBS two times. • 4. 2-3 ml fresh warm trypsin (Gibco, Cat No. 25200-056) solution was added to the washed cells. The flask with the cells was transferred to a 37° C. incubator. • 5. After 5 minutes, the side of the flask was tapped, and the flask was examined under a microscope for detachment of the cells to the flask. If necessary, the cells were kept in the incubator for an additional 5-10 minutes, with occasional tapping, until lifting was complete. • 6. The trypsin reaction was neutralized by transferring 6-9 ml cell culture medium to sterile 15 ml conical tubes, and by centrifuging the cell culture at 300×g for 7 minutes to pellet the cells (supernatant decanted). • 7. The cells were resuspended in fresh cell culture medium and the cell counting was performed using a hemocytometer. • 8. 100 μl of the resuspended cell culture medium containing ˜5,000 cells were transferred into each well of the sterile 96-well cell culture plate (Corning 3903) and cultured overnight at 37° C. with 5% CO2. Compound Titration and Treatment • 1. All test compounds were dissolved in DMSO (Dimethyl sulfoxide) to create a 20 mM stock. • 2. 3 μl of each compound 20 mM stock was mixed with 27 μl DMSO, and the compound solution was further diluted at a titration ratio of 1:3 (20 μl compound solution+40 μl DMSO) till the 10 points end. • 3. All culture medium was removed from assay plates filled with HT-29 cell cultures. […] 0.5 μL of the diluted compound solution was added to the corresponding 96-well assay plates. • 5. The assay plates were incubated for 20 hours at 37° C. with 5% CO2. Cell Viability Detection • 1. The CellTiter-Glo® Luminescent Cell Viability Assay was employed to detect the ATP levels of viable HT-29 cells. • 2. The CellTiter-Glo® buffer and the lyophilized substrate were equilibriated to room temperature prior to use. • 3. The CellTiter-Glo® substrate was resuspended with CellTiter-Glo® buffer, then mixed by gently vortexing to obtain a homogeneous solution. • 4. 20 μl the enzyme/substrate mixture was transferred by multi-channel pipetting into 96-well assay plates. • 5. The assay plates were placed on an orbital shaker and the contents were shaken for 3 minutes to induce cell lysis. • 6. The assay plates were incubated at room temperature for 10 minutes to stabilize the luminescent signal. • 7. The luminescence signals were read and recorded with EnVision. • 8. The geometric mean EC50 values were calculated from 10 points response dose with duplicates. In Table 2, activity is provided as follows: +++=0.1 nM≤EC50<100 nM; ++=100 nM≤EC50<1000 nM; +=1000 nM≤EC50<10000 nM.

Row | Compound | EC50
1 | Cc1cnn(C)c1-c1nc(N2CCC(C(=O)N(C)Cc3cc(F)cc(F)c3)CC2)ncc1F [Compound 85, N-(3,5-difluorobenzyl)-1-(4-(1,4-dimethyl-1H-pyrazol-5-yl)-5-fluoropyrimidin-2-yl)-N-methylpiperidine-4-carboxamide] | 0.1 to 100 nM
2 | Cc1cnn(C)c1-c1nc(N2CCC(C(=O)N(O)Cc3ccc(F)cn3)CC2)ncc1F [Compound 10, 1-(4-(1,4-dimethyl-1H-pyrazol-5-yl)-5-fluoropyrimidin-2-yl)-N-((5-fluoropyridin-2-yl)methyl)-N-hydroxypiperidine-4-carboxamide] | 0.1 to 100 nM
3 | Cc1cnn(C)c1-c1nc(N2CCC(C(=O)N(O)Cc3nccn3C)CC2)ncc1F [Compound 39, 1-(4-(1,4-dimethyl-1H-pyrazol-5-yl)-5-fluoropyrimidin-2-yl)-N-hydroxy-N-((1-methyl-1H-imidazol-2-yl)methyl)piperidine-4-carboxamide] | 1000 to 10000 nM
4 | Cc1nnc(CNC(=O)C2CCN(c3ncc(F)c(-c4c(C)cnn4C)n3)CC2)s1 [Compound 46, 1-(4-(1,4-dimethyl-1H-pyrazol-5-yl)-5-fluoropyrimidin-2-yl)-N-((5-methyl-1,3,4-thiadiazol-2-yl)methyl)piperidine-4-carboxamide] | 1000 to 10000 nM
5 | Cc1cnn(C)c1-c1nc(N2CCC(C(=O)N[C@H](CO)c3ccccc3)CC2)ncc1F [Compound 36, (S)-1-(4-(1,4-dimethyl-1H-pyrazol-5-yl)-5-fluoropyrimidin-2-yl)-N-(2-hydroxy-1-phenylethyl)piperidine-4-carboxamide] | 1000 to 10000 nM
6 | Cc1cnn(C)c1-c1nc(N2CCC(C(=O)N(C)Cc3cc(F)cc(F)c3F)CC2)ncc1F [Compound 66, 1-(4-(1,4-dimethyl-1H-pyrazol-5-yl)-5-fluoropyrimidin-2-yl)-N-methyl-N-(2,3,5-trifluorobenzyl)piperidine-4-carboxamide] | 0.1 to 100 nM
7 | [2H]C([2H])([2H])N(C(=O)C1CCN(c2ncc(F)c(-c3c(C)cnn3C)n2)CC1)C([2H])([2H])c1cc(F)cc(F)c1F [Compound 74, 1-(4-(1,4-dimethyl-1H-pyrazol-5-yl)-5-fluoropyrimidin-2-yl)-N-(methyl-d3)-N-((2,3,5-trifluorophenyl)methyl-d2)piperidine-4-carboxamide] | 0.1 to 100 nM
8 | Cc1cnn(C)c1-c1nc(N2CCC(C(=O)N(O)Cc3ccnn3C)CC2)ncc1F [Compound 27, 1-(4-(1,4-dimethyl-1H-pyrazol-5-yl)-5-fluoropyrimidin-2-yl)-N-hydroxy-N-((1-methyl-1H-pyrazol-5-yl)methyl)piperidine-4-carboxamide] | 100 to 1000 nM
9 | CCN(Cc1cc(C)n(C)n1)C(=O)C1CCN(c2ncc(F)c(-c3c(C)cnn3C)n2)CC1 [Compound 80, N-((1,5-dimethyl-1H-pyrazol-3-yl)methyl)-1-(4-(1,4-dimethyl-1H-pyrazol-5-yl)-5-fluoropyrimidin-2-yl)-N-ethylpiperidine-4-carboxamide] | 100 to 1000 nM
10 | Cc1nc(CNC(=O)C2CCN(c3ncc(F)c(-c4c(C)cnn4C)n3)CC2)c(C)s1 [Compound 56, 1-(4-(1,4-dimethyl-1H-pyrazol-5-yl)-5-fluoropyrimidin-2-yl)-N-((2,5-dimethylthiazol-4-yl)methyl)piperidine-4-carboxamide] | 0.1 to 100 nM
11 | Cc1cnn(C)c1-c1cc(N2CCC(C(=O)N(C)Cc3cc(F)cc(F)c3)CC2)ncn1 [Compound 88, N-(3,5-difluorobenzyl)-1-(6-(1,4-dimethyl-1H-pyrazol-5-yl)pyrimidin-4-yl)-N-methylpiperidine-4-carboxamide] | 0.1 to 100 nM
12 | Cc1cnn(C)c1-c1nc(N2CCC(C(=O)NCc3cc(C)n(C)n3)CC2)ncc1F [Compound 43, N-((1,5-dimethyl-1H-pyrazol-3-yl)methyl)-1-(4-(1,4-dimethyl-1H-pyrazol-5-yl)-5-fluoropyrimidin-2-yl)piperidine-4-carboxamide] | 1000 to 10000 nM
13 | [2H]C([2H])([2H])N(C(=O)C1CCN(c2ncc(F)c(-c3nnc(C)s3)n2)CC1)C([2H])([2H])c1cc(F)cc(F)c1F [Compound 97, 1-(5-fluoro-4-(5-methyl-1,3,4-thiadiazol-2-yl)pyrimidin-2-yl)-N-(methyl-d3)-N-((2,3,5-trifluorophenyl)methyl-d2)piperidine-4-carboxamide] | 0.1 to 100 nM
14 | Cc1cnn(C)c1-c1nc(N2CCC(C(=O)N(O)Cc3ccnc(F)c3)CC2)ncc1F [Compound 20, 1-(4-(1,4-dimethyl-1H-pyrazol-5-yl)-5-fluoropyrimidin-2-yl)-N-((2-fluoropyridin-4-yl)methyl)-N-hydroxypiperidine-4-carboxamide] | 0.1 to 100 nM
15 | Cc1nc(C)n(-c2nc(N3CCC(C(=O)NCc4cc(F)cc(F)c4F)CC3)ncc2F)n1 [Compound 5, 1-(4-(3,5-dimethyl-1H-1,2,4-triazol-1-yl)-5-fluoropyrimidin-2-yl)-N-(2,3,5-trifluorobenzyl)piperidine-4-carboxamide] | 0.1 to 100 nM
16 | Cc1cnn(C)c1-c1nc(N2CCC(C(=O)N(C)Cc3cc(C)n(C)n3)CC2)ncc1F [Compound 79, N-((1,5-dimethyl-1H-pyrazol-3-yl)methyl)-1-(4-(1,4-dimethyl-1H-pyrazol-5-yl)-5-fluoropyrimidin-2-yl)-N-methylpiperidine-4-carboxamide] | 100 to 1000 nM
17 | Cc1cnn(C)c1-c1nc(N2CCC(C(=O)N(O)Cc3cnn(C)c3)CC2)ncc1F [Compound 3, 1-(4-(1,4-dimethyl-1H-pyrazol-5-yl)-5-fluoropyrimidin-2-yl)-N-hydroxy-N-((1-methyl-1H-pyrazol-4-yl)methyl)piperidine-4-carboxamide] | 0.1 to 100 nM
18 | Cc1nc(C)n(-c2nc(N3CCC(C(=O)N(O)Cc4ncccc4F)CC3)ncc2F)n1 [Compound 13, 1-(4-(3,5-dimethyl-1H-1,2,4-triazol-1-yl)-5-fluoropyrimidin-2-yl)-N-((3-fluoropyridin-2-yl)methyl)-N-hydroxypiperidine-4-carboxamide] | 0.1 to 100 nM
19 | CCN(Cc1cnn(C)c1)C(=O)C1CCN(c2ncc(F)c(-c3c(C)cnn3C)n2)CC1 [Compound 84, 1-(4-(1,4-dimethyl-1H-pyrazol-5-yl)-5-fluoropyrimidin-2-yl)-N-ethyl-N-((1-methyl-1H-pyrazol-4-yl)methyl)piperidine-4-carboxamide] | 100 to 1000 nM
20 | Cc1cnn(C)c1-c1nc(N2CCC(C(=O)N(O)Cc3cc(F)cc(F)c3)CC2)ncc1F [Compound 4, N-(3,5-difluorobenzyl)-1-(4-(1,4-dimethyl-1H-pyrazol-5-yl)-5-fluoropyrimidin-2-yl)-N-hydroxypiperidine-4-carboxamide] | 0.1 to 100 nM
21 | O=C(C1CCN(c2ncc(F)cn2)CC1)N(O)Cc1cc(F)cc(F)c1 [Compound 30, N-(3,5-difluorobenzyl)-1-(5-fluoropyrimidin-2-yl)-N-hydroxypiperidine-4-carboxamide] | 100 to 1000 nM

Source: patent US20240217963A1, “RECEPTOR-INTERACTING PROTEIN 1 INHIBITORS, PREPARATIONS, AND USES THEREOF” (SIRONAX LTD., priority 2021, published 2024)
